Experimental data published in paper PMC3805590, “Isozyme-Specific Ligands for O-acetylserine sulfhydrylase, a Novel Antibiotic Target” (PLoS ONE, 2013).
“And” between values parts separate entries of the source, which are not always exact repeats. Identical values can stand only once.

Columns and labels:
[1] = tested on: S. typhimurium knock-out for cysteine synthase; parameters: method as in PMID 18957594; conditions: cysteine synthase knock-out vs wild type; cited from earlier work
[2] = biological target: T1, OASS-A (Salmonella typhimurium, UniProt P0A1E3); experiment: Ligand binding affinity to OASS-A by PLP fluorescence titration; conditions: for Kd: PLP fluorescence at 500 nm, excitation 412 nm, 100 mM Hepes pH 7.0, 20 °C
T1 construct: OASS-A and OASS-B were expressed and purified as previously described; made in house
T1 sequence (P0A1E3 whole entry): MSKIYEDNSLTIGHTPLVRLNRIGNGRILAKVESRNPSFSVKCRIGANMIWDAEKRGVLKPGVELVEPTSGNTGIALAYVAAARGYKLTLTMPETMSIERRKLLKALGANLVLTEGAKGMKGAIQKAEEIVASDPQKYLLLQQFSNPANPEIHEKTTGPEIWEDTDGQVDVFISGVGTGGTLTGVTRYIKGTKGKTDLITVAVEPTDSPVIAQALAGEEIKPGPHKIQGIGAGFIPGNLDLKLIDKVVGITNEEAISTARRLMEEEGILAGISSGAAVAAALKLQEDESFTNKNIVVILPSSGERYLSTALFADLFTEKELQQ
Description: (§1) OASS-A and OASS-B were expressed and purified as previously described. The binding affinity of selected ligands to OASS-A and OASS-B was determined by monitoring the increase in fluorescence emission of the bound PLP at 500 nm following excitation at 412 nm, [55]. Emission spectra were collected at increasing ligand concentrations in the presence of 0.05–1 µM OASS, 100 mM Hepes buffer, pH 7.0 at 20°C. DMSO and/or potassium hydroxide were added when needed to solubilize the compounds and pH was checked to be between 7 and 8.5. Spectra were corrected for the buffer contribution. Fluorescence measurements were carried out using a FluoroMax-3 fluorometer (HORIBA-Jobin Yvon), equipped with a thermostated cell-holder.
(§2) The dependence of fluorescence intensity at 500 nm on ligand concentration was fitted to a binding isotherm: [drawing 1] (1) where I is the fluorescence intensity at 500 nm in the presence of the ligand, I0 is the fluorescence intensity in the absence of ligand, Imax is the maximum fluorescence change at saturating ligand concentrations, [L] is the ligand concentration, and Kd is the dissociation constant of the OASS-ligand complex. This measurement is a direct determination of ligand dissociation constant in the absence of substrate, thus it coincides with Ki, independently from the inhibition mechanism.
(§3) A total of 12 compounds for OASS-A (Table 1) and 11 compounds for OASS-B (Table 2) predicted to be potential ligands were experimentally tested by determining their dissociation constants exploiting PLP fluorescence changes as a function of ligand concentration. The observed increases in coenzyme fluorescence and the concomitant blue shifts of the peaks upon ligand binding result from the closure of the active site – thus altering the coenzyme microenvironment, [55]. It is important to point out that the evaluated dissociation constants for these compounds correspond to their inhibition constants, Ki, because they occupy the enzyme active site, [19], and, therefore, are purely competitive inhibitors.

[3] = biological target: T2, OASS-B (Salmonella typhimurium, UniProt P29848); experiment: Ligand binding affinity to OASS-B by PLP fluorescence titration; conditions: PLP fluorescence at 500 nm, excitation 412 nm, 100 mM Hepes pH 7.0, 20 °C
T2 construct: OASS-A and OASS-B were expressed and purified as previously described; made in house
T2 sequence (P29848 whole entry): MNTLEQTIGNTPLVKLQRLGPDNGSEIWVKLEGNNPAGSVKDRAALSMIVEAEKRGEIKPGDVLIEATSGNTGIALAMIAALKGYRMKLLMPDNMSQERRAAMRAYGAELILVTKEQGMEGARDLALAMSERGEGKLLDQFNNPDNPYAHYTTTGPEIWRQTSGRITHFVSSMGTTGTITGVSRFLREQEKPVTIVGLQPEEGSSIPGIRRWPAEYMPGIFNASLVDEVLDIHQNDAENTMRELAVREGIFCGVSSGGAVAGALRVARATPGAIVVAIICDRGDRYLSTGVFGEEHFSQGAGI
Description: as §1, §2, §3

[4] = tested on: OASS; experiment: Reaction or time-dependent inactivation of OASS by ligand; format: biochemical, Salmonella typhimurium; conditions: under the paper's experimental conditions

| Structure (SMILES) | Kd [2] | Kd [3] [µM] | further results |
| --- | --- | --- | --- |
| O=C(O)c1cn(C2CC2)c2cc(N3CCNCC3)c(F)cc2c1=O [ciprofloxacin] |  |  | MIC lower than wild type bacterium [1]: 500 fold |
| O=C(O)/C=C(/Cl)CC(=O)O [Compound 13] | 29 ± 3 µM | 33 ± 2 | reaction or time-dependent inactivation of OASS [4]: no reaction or time-dependent inactivation of OASS was observed |
| CC(C)C(NS(=O)(=O)c1cccs1)C(=O)O (centres unmarked) [Compound 3] | 95 ± 10 µM | > 1500 |  |
| CCn1ncc([N+](=O)[O-])c1C(=O)O [Compound 23] |  | > 1500 |  |
| CC1(C)OC(=O)C(=CNC(CCC(=O)O)C(=O)O)C(=O)O1 (centres unmarked) [Compound 17] |  | > 1500 |  |
| O=C(O)C1CCCCN1S(=O)(=O)c1cccc([N+](=O)[O-])c1 (centres unmarked) [Compound 5] | 218 ± 61 µM |  |  |
| CC(C)CC(NC=C1C(=O)OC(C)(C)OC1=O)C(=O)O (centres unmarked) [Compound 12] | > 1500 µM |  | binding to OASS-A (in words) ([2]; fluorimetric titration): no binding was observed |
| O=C(O)CC(C(=O)O)c1ccccc1 (centres unmarked) [Compound 4] | 103 ± 9 µM |  |  |
| CC1=C(C(=O)O)N2C(=O)C(NC(=O)c3nn(C)cc3[N+](=O)[O-])C2SC1 (centres unmarked) [Compound 8] | 732 ± 72 µM |  |  |
| Cc1nnc(NC(=O)c2c(C(=O)O)cccc2[N+](=O)[O-])s1 [Compound 10] | > 1500 µM |  |  |
| CC(C)CC(NC(=O)c1ccco1)C(=O)O (centres unmarked) [Compound 7] | 558 ± 131 µM |  |  |
| O=C(O)c1ccoc1CN1CCOCC1 [Compound 11] | > 1500 µM |  |  |
| O=C(O)CNC(=O)CNC(=O)C1C2C=CC(C2)C1C(=O)O (centres unmarked) [Compound 1] | 3.8 µM and < 100 µM and 3.7 µM | 50 ± 5 |  |
| C[S+]([O-])CCC(NS(=O)(=O)c1ccccc1)C(=O)O (centres unmarked) [Compound 22] |  | > 1500 |  |
| O=C(O)C1CC=CCC1C(=O)NCc1ccncc1 (centres unmarked) [Compound 6] | 283 ± 19 µM |  |  |
| CC1(C(=O)O)Cc2oncc2CC1C(=O)O (centres unmarked) [Compound 18] |  | > 1500 |  |
| CCC1([N+](=O)[O-])CN(CC(=O)O)CN(CC(=O)O)C1 [Compound 21] |  | > 1500 |  |
| O=C(O)CCN(CCC(=O)O)S(=O)(=O)c1ccccc1 [Compound 19] |  | > 1500 |  |
| Cn1nnnc1Sc1ncccc1C(=O)O [Compound 14] | > 1500 µM | 810 ± 110 |  |
| O=C(O)CSc1nsc(SCC(=O)O)n1 [Compound 16] |  | > 1500 |  |
| O=C(NC(Cc1ccccc1)C(=O)O)c1ccco1 (centres unmarked) [Compound 9] | 1300 ± 400 µM |  |  |
| O=C(O)C1CC=CCC1C(=O)Nc1nncs1 (centres unmarked) [Compound 2] | 82 ± 18 µM | > 1500 |  |
